According to the supplement of paper PMC10883282:

How the values were obtained:
Assay in all cases: standardised AUC of viability dose-response curve (72 h) (fraction (0-1)); higher = less growth inhibition (more resistant)
[1] = test system: A204
In short: (§1)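 After 72 h with 2.5 µl of compound (compound-plate series 10 mM to 0.0002 mM), triplicate wells of sarcoma cell lines in 384-well plates were read with ATPLite, with viability scaled 1 (full) to 0 (none) and fitted with a four-parameter log-logistic model. The values give the standardised area under the dose-response curve in log-dose space from a modified drexplorer computeAUC. A value of 1 means no response and 0 means full response.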

[2] = test system: G401
In short: as §1

[3] = test system: HS729
In short: as §1

[4] = test system: HT1080
In short: as §1

[5] = test system: KHOS-240S
In short: as §1

[6] = test system: KHOS-NP
In short: as §1

[7] = test system: MES-SA
In short: as §1

[8] = test system: RD-ES
In short: as §1

[9] = test system: RD
In short: as §1

[10] = test system: SK-ES-1
In short: as §1

[11] = test system: SK-LMS-1
In short: as §1

[12] = test system: SW1353
In short: as §1

[13] = test system: SW684
In short: as §1

[14] = test system: SW872
In short: as §1

[15] = test system: SW982
In short: as §1

[16] = test system: SYO-1
In short: as §1

[17] = test system: VA-ES-BJ
In short: as §1

| Compound | standardised AUC [1] | standardised AUC [2] | standardised AUC [3] | standardised AUC [4] | standardised AUC [5] | standardised AUC [6] | standardised AUC [7] | standardised AUC [8] | standardised AUC [9] | standardised AUC [10] | standardised AUC [11] | standardised AUC [12] | standardised AUC [13] | standardised AUC [14] | standardised AUC [15] | standardised AUC [16] | standardised AUC [17] |
| --- | --- | --- | --- | --- | --- | --- | --- | --- | --- | --- | --- | --- | --- | --- | --- | --- | --- |
| CCCS(=O)(=O)N[C@H]1C[C@@H](N(C)c2ncnc3[nH]ccc23)C1 [ABROCITINIB] | 0.984 | 0.985 | 0.982 | 1 | 0.989 | 0.994 | 0.996 | 1 | 0.995 | 0.985 | 0.997 | 1 | 0.989 | 0.991 | 0.997 | 1 | 1 |
| COc1cc2c(Oc3ccc4[nH]c(C)cc4c3F)ccnc2cc1OCC1(N)CC1 [ANLOTINIB] | 0.708 | 0.872 | 0.909 | 0.965 | 0.883 | 0.93 | 0.876 | 0.914 | 0.903 | 0.851 | 0.868 | 0.909 | 0.944 | 0.936 | 0.904 | 0.736 | 0.941 |
| CCN(CCCOc1ccc2c(Nc3cc(CC(=O)Nc4cccc(F)c4)[nH]n3)ncnc2c1)CCOP(=O)(O)O [BARASERTIB] | 0.816 | 0.869 | 0.928 | 0.925 | 0.856 | 1 | 0.685 | 0.5 | 0.826 | 0.4 | 0.938 | 0.915 | 0.972 | 0.94 | 0.745 | 0.581 | 0.8 |
| COc1cc(Nc2c(C#N)cnc3cc(OCCCN4CCN(C)CC4)c(OC)cc23)c(Cl)cc1Cl [BOSUTINIB] | 0.93 | 0.932 | 0.906 | 0.917 | 0.851 | 0.87 | 0.861 | 0.856 | 0.895 | 0.78 | 0.932 | 0.895 | 0.883 | 0.848 | 0.795 | 0.909 | 0.85 |
| COc1cc2nccc(Oc3ccc(NC(=O)C4(C(=O)Nc5ccc(F)cc5)CC4)cc3)c2cc1OC [CABOZANTINIB] | 0.656 | 0.856 | 0.809 | 0.965 | 0.923 | 0.96 | 0.871 | 0.919 | 0.95 | 0.89 | 0.661 | 0.855 | 0.827 | 0.908 | 0.916 | 0.714 | 0.913 |
| Cc1cc(Nc2ncc(Cl)c(Nc3ccccc3S(=O)(=O)C(C)C)n2)c(OC(C)C)cc1C1CCNCC1 [CERITINIB] | 0.87 | 0.833 | 0.889 | 0.918 | 0.874 | 0.933 | 0.916 | 0.784 | 0.81 | 0.751 | 0.924 | 0.865 | 0.923 | 0.901 | 0.827 | 0.884 | 0.933 |
| C[C@@H](Oc1cc(-c2cnn(C3CCNCC3)c2)cnc1N)c1c(Cl)ccc(F)c1Cl [CRIZOTINIB] | 0.877 | 0.859 | 0.879 | 0.919 | 0.873 | 0.944 | 0.765 | 0.758 | 0.824 | 0.72 | 0.717 | 0.915 | 0.901 | 0.834 | 0.74 | 0.745 | 0.817 |
| COc1cc2ncnc(Nc3ccc(F)c(Cl)c3)c2cc1NC(=O)/C=C/CN1CCCCC1 [DACOMITINIB] | 0.842 | 0.89 | 0.907 | 0.916 | 0.896 | 0.939 | 0.858 | 0.879 | 0.869 | 0.824 | 0.91 | 0.804 | 0.888 | 0.87 | 0.814 | 0.856 | 0.893 |
| Cc1nc(Nc2ncc(C(=O)Nc3c(C)cccc3Cl)s2)cc(N2CCN(CCO)CC2)n1 [DASATINIB] | 0.612 | 0.86 | 0.774 | 0.941 | 0.617 | 0.725 | 0.949 | 0.949 | 0.658 | 0.907 | 0.78 | 0.712 | 0.767 | 0.716 | 0.607 | 0.736 | 0.651 |
| COc1cc(OC)cc(N(CCNC(C)C)c2ccc3ncc(-c4cnn(C)c4)nc3c2)c1 [ERDAFITINIB] | 0.555 | 0.604 | 0.685 | 0.964 | 0.773 | 0.971 | 0.796 | 0.891 | 0.924 | 0.818 | 0.91 | 0.868 | 0.924 | 0.856 | 0.816 | 0.581 | 0.912 |
| C#Cc1cccc(Nc2ncnc3cc(OCCOC)c(OCCOC)cc23)c1 [ERLOTINIB] | 0.943 | 0.982 | 0.956 | 0.992 | 0.994 | 0.994 | 0.941 | 0.983 | 0.984 | 0.893 | 0.968 | 0.926 | 0.992 | 0.946 | 0.927 | 0.978 | 0.955 |
| Cc1ccc(NC(=O)c2ccc(CN3CCN(C)CC3)cc2)cc1Nc1nccc(-c2cccnc2)n1 [IMATINIB] | 0.725 | 0.957 | 0.959 | 0.974 | 0.949 | 0.966 | 0.973 | 0.983 | 0.988 | 0.962 | 0.982 | 0.984 | 0.983 | 0.979 | 0.98 | 0.865 | 0.987 |
| N#CCC1(n2cc(-c3ncnc4[nH]ccc34)cn2)CN(C2CCN(C(=O)c3ccnc(C(F)(F)F)c3F)CC2)C1 [ITACITINIB] | 0.965 | 0.968 | 0.853 | 0.977 | 0.96 | 0.946 | 0.977 | 0.975 | 0.997 | 0.969 | 0.948 | 0.95 | 0.983 | 0.922 | 0.974 | 0.867 | 0.948 |
| N#Cc1ccnc(N2C(=O)CC[C@H]2C(=O)N(c2cncc(F)c2)[C@H](C(=O)NC2CC(F)(F)C2)c2ccccc2Cl)c1 [IVOSIDENIB] | 0.972 | 0.981 | 0.986 | 1 | 0.988 | 0.993 | 0.999 | 0.988 | 0.992 | 0.997 | 0.977 | 0.993 | 0.993 | 1 | 0.974 | 0.985 | 0.987 |
| COc1cc2nccc(Oc3ccc(NC(=O)NC4CC4)c(Cl)c3)c2cc1C(N)=O [LENVATINIB] | 0.587 | 0.845 | 0.866 | 0.995 | 0.888 | 1 | 0.911 | 0.937 | 0.999 | 0.898 | 0.984 | 0.914 | 0.992 | 0.978 | 0.966 | 0.701 | 1 |
| C[C@H]1Oc2cc(cnc2N)-c2c(nn(C)c2C#N)CN(C)C(=O)c2ccc(F)cc21 [LORLATINIB] | 0.959 | 0.96 | 0.871 | 0.977 | 0.953 | 0.957 | 0.951 | 0.932 | 0.926 | 0.963 | 0.952 | 0.928 | 0.983 | 0.861 | 0.887 | 0.895 | 0.941 |
| Cc1c(F)cc(C(=O)NC2CC2)cc1-c1ccc(C(=O)NCC(C)(C)C)cn1 [LOSMAPIMOD] | 0.977 | 0.941 | 0.87 | 0.999 | 0.944 | 0.999 | 0.944 | 0.95 | 0.981 | 0.929 | 0.973 | 0.993 | 0.995 | 0.992 | 0.991 | 0.933 | 0.941 |
| CO[C@@H]1[C@H](N(C)C(=O)c2ccccc2)C[C@H]2O[C@]1(C)n1c3ccccc3c3c4c(c5c6ccccc6n2c5c31)C(=O)NC4 [MIDOSTAURIN] | 0.715 | 0.778 | 0.796 | 0.8 | 0.709 | 0.812 | 0.731 | 0.764 | 0.81 | 0.689 | 0.773 | 0.733 | 0.835 | 0.757 | 0.709 | 0.642 | 0.785 |
| Cc1ccc(C(=O)OCc2ccc([C@@H](CN)C(=O)Nc3ccc4cnccc4c3)cc2)c(C)c1 [NETARSUDIL] | 0.85 | 0.949 | 0.966 | 0.952 | 0.828 | 0.951 | 0.857 | 0.914 | 0.923 | 0.921 | 0.886 | 0.855 | 0.926 | 0.893 | 0.91 | 0.884 | 0.985 |
| Cc1cn(-c2cc(NC(=O)c3ccc(C)c(Nc4nccc(-c5cccnc5)n4)c3)cc(C(F)(F)F)c2)cn1 [NILOTINIB] | 0.799 | 0.954 | 0.917 | 0.972 | 0.947 | 0.989 | 0.957 | 0.949 | 0.926 | 0.909 | 1 | 0.996 | 1 | 0.971 | 0.976 | 0.843 | 0.981 |
| NC(=O)c1cccc2cn(-c3ccc([C@@H]4CCCNC4)cc3)nc12 [NIRAPARIB] | 0.949 | 0.971 | 0.977 | 0.999 | 0.983 | 1 | 0.961 | 0.874 | 0.956 | 0.8 | 0.979 | 0.966 | 0.989 | 1 | 0.94 | 0.842 | 0.966 |
| C=CC(=O)Nc1cc(Nc2nccc(-c3cn(C)c4ccccc34)n2)c(OC)cc1N(C)CCN(C)C [OSIMERTINIB] | 0.873 | 0.904 | 0.874 | 0.938 | 0.923 | 0.974 | 0.893 | 0.89 | 0.921 | 0.847 | 0.925 | 0.919 | 0.939 | 0.918 | 0.907 | 0.798 | 0.916 |
| C1=N/C2=N/c3ccc(OCCN4CCCC4)c(c3)COC/C=C/COCc3cccc(c3)C(=C1)N2 [PACRITINIB] | 0.736 | 0.793 | 0.855 | 0.853 | 0.811 | 0.898 | 0.787 | 0.792 | 0.781 | 0.714 | 0.897 | 0.836 | 0.758 | 0.786 | 0.733 | 0.747 | 0.753 |
| NC(=O)c1cnc2[nH]ccc2c1N[C@@H]1[C@@H]2CC3C[C@H]1C[C@@](O)(C3)C2 [PEFICITINIB] | 0.912 | 1 | 0.988 | 1 | 0.955 | 0.982 | 0.949 | 0.983 | 1 | 0.938 | 0.985 | 1 | 0.988 | 0.977 | 0.929 | 0.888 | 0.995 |
| CCCCCCCCCCCCCCCCCCOP(=O)([O-])OC1CC[N+](C)(C)CC1 [PERIFOSINE] | 0.982 | 0.994 | 0.924 | 0.966 | 0.983 | 0.966 | 0.954 | 0.994 | 0.996 | 0.952 | 0.941 | 0.962 | 0.999 | 0.915 | 0.99 | 0.946 | 0.968 |
